Results reported in US11596692B1 (Incyte Corporation, priority 2018, dated 2023).
Read-outs that look alike come from different tables or passages of the source.

Tested on: IRF3
Assay: IRF3 activation assay in THP-1 Dual cells
Assay type: cell-based
Details: Homo sapiens, read-out: THP1 IRF3 EC50
Experimental: THP-1 Dual Cells (Invivogen) were maintained in RPMI1640 medium with addition of 10% FBS, 100 μg/ml zeocin, 10 μg/ml blasticidin. Cells were added in a 96-well flat bottom assay plate at 100,000 per well in 100 μL complete RPMI medium. Test compounds were prepared by serial dilution in complete RPMI medium and 100 μL test compounds were transferred to each corresponding well. The assay plate was incubated at 37° C., 5% CO2 for 24 hours. After the overnight incubation, 20 μL of the culture supernatants were collected, followed by addition of 180 μL of QUANTI-Blue (Invivogen) to assess IRF3 activity. The amount of IRF3 activation was assessed by reading the absorbance at 620-655 nm with a microplate reader 2 hours later. The culture supernatant from the untreated THP-1 cells was used as the negative control. EC50 determination was performed by fitting the curve of percent control activity versus the log of the compound concentration using the GraphPad Prism 6.0 software.

Row | EC50 (THP-1, Table 4A) [µM] | EC50 (THP-1, Table 4B) [µM] | EC50 (THP-1, Table 4C) [µM] | SMILES
1 | 0.5 to 1 | < 1 | 0.5 to 1 | CCc1nn(C)cc1-c1ncc2c3cc(C(N)=O)ccc3n(C/C=C/Cn3c(NC(=O)c4cc(C)nn4CC)nc4cc(C(N)=O)cc(C)c43)c2n1 [Example S8, (E)-9-(4-(5-carbamoyl-2-(1-ethyl-3-methyl-1H-pyrazole-5-carboxamido)-7-methyl-1H-benzo[d]imidazol-1-yl)but-2-enyl)-2-(3-ethyl-1-methyl-1H-pyrazol-4-yl)-9H-pyrimido[4,5-b]indole-6-carboxamide]
2 | 0.1 to 0.5 | < 1 | 0.2 to 0.5 | CCn1nc(C)cc1C(=O)Nc1nc2cc(C(N)=O)cc(C)c2n1C/C=C/Cn1c2ccc(C(N)=O)cc2c2cnc(-c3cc(C(F)(F)F)nn3CC)nc21 [Example S9, (E)-9-(4-(5-carbamoyl-2-(1-ethyl-3-methyl-1H-pyrazole-5-carboxamido)-7-methyl-1H-benzo[d]imidazol-1-yl)but-2-enyl)-2-(1-ethyl-3-(trifluoromethyl)-1H-pyrazol-5-yl)-9H-pyrimido[4,5-b]indole-6-carboxamide]
3 | ≤ 0.1 | < 0.2 | ≤ 0.05 | CCn1nc(C)cc1C(=O)Nc1nc2cc(C(N)=O)cc(C)c2n1C/C=C/Cn1c2nc(-c3cc(C)nn3CC)ncc2c2cc(C(N)=O)cc(OC)c21 [Example S10, (E)-9-(4-(5-carbamoyl-2-(1-ethyl-3-methyl-1H-pyrazole-5-carboxamido)-7-methyl-1H-benzo[d]imidazol-1-yl)but-2-enyl)-2-(1-ethyl-3-methyl-1H-pyrazol-5-yl)-8-methoxy-9H-pyrimido[4,5-b]indole-6-carboxamide]
4 | ≤ 0.1 | < 0.2 | ≤ 0.05 | CCn1nc(C)cc1C(=O)Nc1nc2cc(C(N)=O)cc(C)c2n1C/C=C/Cn1c2nc(-c3cc(C)nn3CC)ncc2c2cc(C(N)=O)cc(OCCCN3CCOCC3)c21 [Example S11, (E)-9-(4-(5-carbamoyl-2-(1-ethyl-3-methyl-1H-pyrazole-5-carboxamido)-7-methyl-1H-benzo[d]imidazol-1-yl)but-2-enyl)-2-(1-ethyl-3-methyl-1H-pyrazol-5-yl)-8-(3-morpholinopropoxy)-9H-pyrimido[4,5-b]indole-6-carboxamide]
5 | ≤ 0.1 | < 0.2 | ≤ 0.05 | CCn1nc(C)cc1C(=O)Nc1nc2cc(C(N)=O)cc(C)c2n1C/C=C/Cn1c2nc(-c3cc(C)nn3CC)ncc2c2cc(C(N)=O)cc(OCCCOC)c21 [Example S12, (E)-9-(4-(5-carbamoyl-2-(1-ethyl-3-methyl-1H-pyrazole-5-carboxamido)-7-methyl-1H-benzo[d]imidazol-1-yl)but-2-enyl)-2-(1-ethyl-3-methyl-1H-pyrazol-5-yl)-8-(3-methoxypropoxy)-9H-pyrimido[4,5-b]indole-6-carboxamide]
6 | ≤ 0.1 | < 0.2 | ≤ 0.05 | CCn1nc(C)cc1C(=O)Nc1nc2cc(C(N)=O)cc(C)c2n1C/C=C/Cn1c2nc(-c3cc(C)nn3CC)ncc2c2cc(C(N)=O)cc(OCCCO)c21 [Example S13, (E)-9-(4-(5-carbamoyl-2-(1-ethyl-3-methyl-1H-pyrazole-5-carboxamido)-7-methyl-1H-benzo[d]imidazol-1-yl)but-2-enyl)-2-(1-ethyl-3-methyl-1H-pyrazol-5-yl)-8-(3-hydroxypropoxy)-9H-pyrimido[4,5-b]indole-6-carboxamide]
7 | ≤ 0.1 | < 0.2 | ≤ 0.05 | CCn1nc(C)cc1C(=O)Nc1nc2cc(C(N)=O)cc(C)c2n1C/C=C/Cn1c2nc(-c3cc(C)nn3CC)ccc2c2cc(C(N)=O)cc(OC)c21 [Example S14, (E)-9-(4-(5-carbamoyl-2-(1-ethyl-3-methyl-1H-pyrazole-5-carboxamido)-7-methyl-1H-benzo[d]imidazol-1-yl)but-2-enyl)-2-(1-ethyl-3-methyl-1H-pyrazol-5-yl)-8-methoxy-9H-pyrido[2,3-b]indole-6-carboxamide]
8 | ≤ 0.1 | < 0.2 | ≤ 0.05 | CCn1nc(C)cc1C(=O)Nc1nc2cc(C(N)=O)cc(OCCCOC(=O)c3cc(C)nn3CC)c2n1C/C=C/Cn1c2nc(-c3cc(C)nn3CC)ncc2c2cc(C(N)=O)cc(OC)c21 [Example S15, (E)-3-((5-carbamoyl-1-(4-(6-carbamoyl-2-(1-ethyl-3-methyl-1H-pyrazol-5-yl)-8-methoxy-9H-pyrimido[4,5-b]indol-9-yl)but-2-en-1-yl)-2-(1-ethyl-3-methyl-1H-pyrazole-5-carboxamido)-1H-benzo[d]imidazol-7-yl)oxy)propyl 1-ethyl-3-methyl-1H-pyrazole-5-carboxylate]
9 | ≤ 0.1 | < 0.2 | ≤ 0.05 | CCn1nc(C)cc1C(=O)Nc1nc2cc(C(N)=O)cc(OCCCO)c2n1C/C=C/Cn1c2nc(-c3cc(C)nn3CC)ncc2c2cc(C(N)=O)cc(OC)c21 [Example S16, (E)-9-(4-(5-carbamoyl-2-(1-ethyl-3-methyl-1H-pyrazole-5-carboxamido)-7-(3-hydroxypropoxy)-1H-benzo[d]imidazol-1-yl)but-2-en-1-yl)-2-(1-ethyl-3-methyl-1H-pyrazol-5-yl)-8-methoxy-9H-pyrimido[4,5-b]indole-6-carboxamide]
10 | ≤ 0.1 | < 0.2 | ≤ 0.05 | CCn1nc(C)cc1C(=O)Nc1nc2cc(C(N)=O)cc(OCCCOC(=O)c3cc(C)nn3CC)c2n1C/C=C/Cn1c2ccc(C(N)=O)cc2c2cnc(-c3cc(C)nn3CC)nc21 [Example S17, (E)-3-((5-carbamoyl-1-(4-(6-carbamoyl-2-(1-ethyl-3-methyl-1H-pyrazol-5-yl)-9H-pyrimido[4,5-b]indol-9-yl)but-2-en-1-yl)-2-(1-ethyl-3-methyl-1H-pyrazole-5-carboxamido)-1H-benzo[d]imidazol-7-yl)oxy)propyl 1-ethyl-3-methyl-1H-pyrazole-5-carboxylate]

The next lines start with the molecule.

Row | SMILES | EC50 (THP-1, Table 4A) [µM] | EC50 (THP-1, Table 4B) [µM] | EC50 (THP-1, Table 4C) [µM]
11 | CCn1nc(C)cc1C(=O)Nc1nc2cc(C(N)=O)cc(C)c2n1C/C=C/Cn1c2ccc(C(N)=O)cc2c2cnc(-c3cc(C)nn3CC)nc21 [Example S1, (E)-9-(4-(5-carbamoyl-2-(1-ethyl-3-methyl-1H-pyrazole-5-carboxamido)-7-methyl-1H-benzo[d]imidazol-1-yl)but-2-enyl)-2-(1-ethyl-3-methyl-1H-pyrazol-5-yl)-9H-pyrimido[4,5-b]indole-6-carboxamide] | 0.5 to 1 | < 1 | 0.05 to 0.2
12 | CCn1nc(C)cc1C(=O)Nc1nc2cc(C(N)=O)cc(C)c2n1C/C=C/Cn1c2ccccc2c2cnc(-c3cc(C)nn3CC)nc21 [Example S2, (E)-1-(4-(2-(1-ethyl-3-methyl-1H-pyrazol-5-yl)-9H-pyrimido[4,5-b]indol-9-yl)but-2-enyl)-2-(1-ethyl-3-methyl-1H-pyrazole-5-carboxamido)-7-methyl-1H-benzo[d]imidazole-5-carboxamide] | 0.1 to 0.5 | < 1 | 0.2 to 0.5
13 | CCn1nc(C)cc1C(=O)Nc1nc2cc(C(N)=O)cc(C)c2n1C/C=C/Cn1c2ccc(C(N)=O)cc2c2cnc(-c3cc(C)nn3C)nc21 [Example S3, (E)-9-(4-(5-carbamoyl-2-(1-ethyl-3-methyl-1H-pyrazole-5-carboxamido)-7-methyl-1H-benzo[d]imidazol-1-yl)but-2-enyl)-2-(1,3-dimethyl-1H-pyrazol-5-yl)-9H-pyrimido[4,5-b]indole-6-carboxamide] | 0.1 to 0.5 | < 1 | 
14 | CCn1nc(C)cc1C(=O)Nc1nc2cc(C(N)=O)cc(OC)c2n1C/C=C/Cn1c2ccc(C(N)=O)cc2c2cnc(-c3cc(C)nn3CC)nc21 [Example S4, (E)-9-(4-(5-carbamoyl-2-(1-ethyl-3-methyl-1H-pyrazole-5-carboxamido)-7-methoxy-1H-benzo[d]imidazol-1-yl)but-2-enyl)-2-(1-ethyl-3-methyl-1H-pyrazol-5-yl)-9H-pyrimido[4,5-d]indole-6-carboxamide] | 0.5 to 1 | < 1 | 0.5 to 1
15 | CCn1nc(C)cc1C(=O)Nc1nc2cc(C(N)=O)cc(C)c2n1C/C=C/Cn1c2ccc(C(N)=O)cc2c2ccc(-c3cc(C)nn3CC)nc21 [Example S5, (E)-9-(4-(5-carbamoyl-2-(1-ethyl-3-methyl-1H-pyrazole-5-carboxamido)-7-methyl-1H-benzo[d]imidazol-1-yl)but-2-en-1-yl)-2-(1-ethyl-3-methyl-1H-pyrazol-5-yl)-9H-pyrido[2,3-b]indole-6-carboxamide] | ≤ 0.1 | < 1 | 0.05 to 0.2
16 | CCCn1nc(C)cc1-c1ncc2c3cc(C(N)=O)ccc3n(C/C=C/Cn3c(NC(=O)c4cc(C)nn4CC)nc4cc(C(N)=O)cc(C)c43)c2n1 [Example S6, (E)-9-(4-(5-carbamoyl-2-(1-ethyl-3-methyl-1H-pyrazole-5-carboxamido)-7-methyl-1H-benzo[d]imidazol-1-yl)but-2-enyl)-2-(3-methyl-1-propyl-1H-pyrazol-5-yl)-9 H-pyrimido[4,5-b]indole-6-carboxamide] | ≤ 0.1 | < 0.2 | ≤ 0.05
17 | CCn1nc(C)cc1C(=O)Nc1nc2cc(C(N)=O)cc(C)c2n1C/C=C/Cn1c2ccc(C(N)=O)cc2c2cnc(-c3ccnn3CC)nc21 [Example S7, (E)-9-(4-(5-carbamoyl-2-(1-ethyl-3-methyl-1H-pyrazole-5-carboxamido)-7-methyl-1H-benzo[d]imidazol-1-yl)but-2-enyl)-2-(1-ethyl-1H-pyrazol-5-yl)-9H-pyrimido[4,5-b]indole-6-carboxamide] | 0.1 to 0.5 | < 1 | 0.2 to 0.5
